# Values of other authors, collected in US20230165842A1, “NEW USES” (priority 2020, published 2023).
# Where two headings read alike, the source gives them in different places.
# What was measured:
# [1] = system: patients hospitalized with COVID-19; conditions: With Calcifediol Treatment (n = 50)
# SARS-CoV-2 [2] = conditions: treated 24 hours prior to infection; read-out: IC50 in Calu-3
# SARS-CoV-2 [3] = conditions: treated 24 hours prior to infection; read-out: IC50 in Vero
# SARS-CoV-2 [4] = conditions: virucidal activity; chlorphenamine maleate
# SARS-CoV-2 [5] = conditions: Vero E6; for IC50: 2 h pre-treatment, 24 h
# IL1β = conditions: curcumin group
# IL-18 and TNF-α = conditions: before and after intervention
# IL6 = conditions: curcumin group
# SARS-CoV-2 [6] = conditions: Calu-3
# [7] = system: critically ill patients with COVID-19; conditions: compared to placebo or usual care
# [8] = system: SARS-CoV-2 Spike pseudotyped virus; conditions: ACE2h HEK293T cells; Control = 1
# ACE2 = ACE2 (Homo sapiens, UniProt Q9BYF1); conditions: cell membrane chromatography and surface plasmon resonance
# SARS-CoV-2 [9] = conditions: pre-treated A549^AcE2; MOI 0.01; 24 hours; p<0.001 vs DMSO
# SARS-CoV-2 [10] = conditions: pre-treated Vero-E6; MOI 0.01; 24 hours; p<0.001 vs DMSO
# HCoV-OC43 = conditions: Vero C1008; dose-dependent
# SARS-CoV-2-Wuhan-Hu-1 = conditions: Vero C1008
# SARS-CoV-2 [11] = conditions: Yang et al., 2020
# Vero-E6 cells = conditions: read-out: CC50 in
# SARS-CoV-2 [12] = conditions: Vero-E6; for EC50: MOI 0.005
# SARS-CoV-2 [13] = conditions: with increased concentrations; vs DMSO treated group
# OC43 [14] = conditions: maximal across all concentrations
# SARS-CoV-2 [15] = system: SARS-CoV-2
# OC43 [16] = system: OC43
# SARS-CoV-2 [17] = conditions: Vero E6; with reduced cytotoxicity
# [18] = system: human coronavirus (HCoV)-229E; conditions: MRC5 cells
# SARS-CoV-2 [19] = conditions: 10 μM; post-infection treatment; Vero E6; MOI 1
# ACE2, sequence (Q9BYF1 18-805): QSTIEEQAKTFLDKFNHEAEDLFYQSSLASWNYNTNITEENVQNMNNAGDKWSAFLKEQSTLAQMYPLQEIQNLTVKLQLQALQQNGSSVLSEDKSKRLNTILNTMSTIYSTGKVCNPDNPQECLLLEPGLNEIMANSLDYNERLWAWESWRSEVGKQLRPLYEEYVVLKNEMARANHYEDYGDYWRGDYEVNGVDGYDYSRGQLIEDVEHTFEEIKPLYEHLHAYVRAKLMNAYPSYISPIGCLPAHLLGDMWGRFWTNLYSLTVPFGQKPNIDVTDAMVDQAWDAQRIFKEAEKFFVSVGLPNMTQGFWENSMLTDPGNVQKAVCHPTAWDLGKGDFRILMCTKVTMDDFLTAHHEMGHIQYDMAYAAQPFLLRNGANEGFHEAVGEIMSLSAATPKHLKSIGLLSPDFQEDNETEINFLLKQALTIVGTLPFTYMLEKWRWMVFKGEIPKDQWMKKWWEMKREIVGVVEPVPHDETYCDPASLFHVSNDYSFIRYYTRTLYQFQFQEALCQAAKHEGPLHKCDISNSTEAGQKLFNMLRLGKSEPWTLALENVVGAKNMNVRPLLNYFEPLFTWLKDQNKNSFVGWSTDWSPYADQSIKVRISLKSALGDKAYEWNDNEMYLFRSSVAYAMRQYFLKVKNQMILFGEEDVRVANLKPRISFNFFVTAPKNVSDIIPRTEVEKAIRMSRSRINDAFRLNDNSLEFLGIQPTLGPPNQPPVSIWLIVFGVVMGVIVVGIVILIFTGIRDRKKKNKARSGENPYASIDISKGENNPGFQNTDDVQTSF
compound,measurement,setting,value
"C=C1CC[C@H](O)C/C1=C/C=C1\CCC[C@]2(C)[C@@H]([C@H](C)CCCC(C)(C)O)CC[C@@H]12 [Calcifediol, calcifediol]","Not requiring ICU, n (%)",[1],49 (98)
same,"Requiring ICU, n (%)",[1],1 (2)
"CCCCCC(=O)O[C@]1(C(C)=O)CC[C@H]2[C@@H]3CCC4=CC(=O)CC[C@]4(C)[C@H]3CC[C@@]21C [Compound 2, 17-hydroxyprogesterone-caproate]",IC50,SARS-CoV-2 [2],3.87 µM
same,IC50,SARS-CoV-2 [3],6.3 µM
"CN(C)CCC(c1ccc(Cl)cc1)c1ccccn1 (stereo not shown) [Compound 16, chlorphenamine]",reduction in the viral load,SARS-CoV-2 [4],99.7%
same,Selectivity Index (SI),SARS-CoV-2 [5]; MOI 0.004,3.78
same,IC50,SARS-CoV-2 [5]; MOI 0.004,3.14 µM
same,Selectivity Index (SI),SARS-CoV-2 [5]; MOI 0.01,2.94
same,IC50,SARS-CoV-2 [5]; MOI 0.01,4.03 µM
same,CC50,Vero E6 cells,11.9 µM
"COc1cc(/C=C/C(=O)CC(=O)/C=C/c2ccc(O)c(OC)c2)ccc1O [Compound 21, curcumin]","IL1β mRNA expression level, after",IL1β; 160 mg daily for 14 days,0.56
same,"IL1β mRNA expression level, before",IL1β; before intervention,1.01
same,expression level of IL-18 and TNF-α,IL-18 and TNF-α,no statistically significant differences
same,"IL6 mRNA expression level, after",IL6; 160 mg daily for 14 days,0.58
same,"IL6 mRNA expression level, before",IL6; before intervention,0.98
"CCOC(=O)C1=C(C)NC(C)=C(C(=O)OC)C1c1cccc(Cl)c1Cl (stereo not shown) [Compound 30, felodipine]",CC50,Calu-3 cells,123 µM
same,SI = CC50/EC50,SARS-CoV-2 [6],9784.86
"C[C@]12CCC(=O)C=C1CC[C@@H]1[C@@H]2[C@@H](O)C[C@@]2(C)[C@H]1CC[C@]2(O)C(=O)CO [Compound 32, hydrocortisone]",odds ratio (OR) of mortality,[7],"0.69 (95% CI, 0.43-1.12; P = .13)"
"CCOC(=O)N1CCC(=C2c3ccc(Cl)cc3CCc3cccnc32)CC1 [Compound 42, loratadine]",pseudotype entry (mean),[8],0.7
same,binding to ACE2,ACE2,could bind to ACE2
"CN1CCN(CCCN2c3ccccc3Sc3ccc(C(F)(F)F)cc32)CC1 [Compound 73, trifluoperazine]",SARS-COV-2 replication (vRNA levels),SARS-CoV-2 [9],successfully blocked
same,SARS-COV-2 replication (vRNA levels),SARS-CoV-2 [10],successfully blocked
"C[S+]([O-])CCCCN=C=S (stereo not shown) [Compound 139, sulforaphane]",HCoV-OC43 virus-associated cell death,HCoV-OC43,effectively inhibited
same,protein concentration in the bronchoalveolar lavage (BAL),"SARS-CoV-2/USA/WI1/2020; SFN daily oral gavage from one day prior to inoculation, vs untreated infected controls, P<0.0001",significantly lower
same,"reduction in viral titers, alveolar fluid","SARS-CoV-2/USA/WI1/2020; vs untreated controls, P=0.04",1.15 log
same,reduction in viral lung titers,"SARS-CoV-2/USA/WI1/2020; vs untreated controls, normalized to PoI2Ra",1.5 log
same,cytotoxic dose TD50,Vero C1008,73 to 89 µM
same,SARS-CoV-2-Wuhan-Hu-1 virus-associated cell death,SARS-CoV-2-Wuhan-Hu-1; dose-dependent,effectively inhibited
same,IC50,SARS-CoV-2-Wuhan-Hu-1; drug 1-2 hours before inoculation,12 µM
"CC(CN1c2ccccc2Sc2ccccc21)N(C)C (stereo not shown) [Compound 144, promethazine]",Selectivity Index (SI),SARS-CoV-2 [5]; MOI 0.004,4.62
same,IC50,SARS-CoV-2 [5]; MOI 0.004,9.21 µM
same,Selectivity Index (SI),SARS-CoV-2 [5]; MOI 0.01,4.08
same,IC50,SARS-CoV-2 [5]; MOI 0.01,10.4 µM
same,CC50,"Vero E6 cells; Vero E6, listed as MOI 0.004",> 42.6 µM
same,CC50,"Vero E6 cells; Vero E6, listed as MOI 0.01",> 42.6 µM
same,SARS-CoV-2 entry inhibition,SARS-CoV-2 [11],SARS-CoV-2 entry inhibitor
"Nc1ccn([C@@H]2O[C@H](CO)[C@@H](O)C2(F)F)c(=O)n1 [Compound 155, gemcitabine]",CC50,Vero-E6 cells,> 40 µM
same,SI,SARS-CoV-2 [12],33
same,EC50,SARS-CoV-2 [12],1.24 µM
same,positive cells in IFA,SARS-CoV-2 [13],significantly decreased positive cells
"CS(=O)(=O)CCNCc1ccc(-c2ccc3ncnc(Nc4ccc(OCc5cccc(F)c5)c(Cl)c4)c3c2)o1 [Compound 187, lapatinib]",Max % Inhibition of Viral Killing,OC43 [14],63.99%
same,SARS-CoV-2 viral replication,SARS-CoV-2 [15],strongly inhibited
same,toxicity,"SARS-CoV-2 [15]; at doses readily achievable in human tissues, data not shown",without any toxicity
same,inhibited SARS-CoV-2 replication,SARS-CoV-2 [15]; data not shown,"over 50,000 fold"
same,OC43 viral replication,OC43 [16],strongly inhibited
"Oc1ccc(C=Cc2cc(O)cc(O)c2)cc1 [Compound 192, resveratrol]",viral titer on SARS-CoV-2,SARS-CoV-2 [17],showed a reduction of the viral titer
same,EC50,[18],4.6 µM
same,reduction of the viral titer,[18],80%
"CCN(CC)CCCC(C)Nc1ccnc2cc(Cl)ccc12 (stereo not shown) [Reference Compound 1, chloroquine]",IC50,SARS-CoV-2 [2],69.2 µM
same,IC50,SARS-CoV-2 [5]; MOI 0.004,42 µM
same,IC50,SARS-CoV-2 [5]; MOI 0.01,46.8 µM
same,EC50,[18],5 µM
same,reduction of the viral titer,[18],60%
same,EC50,SARS-CoV-2 [12],1.36 µM
calcitriol [Compound 142],reduction of SARS-CoV-2 titre,SARS-CoV-2 [19],1.3 log 10
saracatinib [Compound 112],Max % Inhibition of Viral Killing,OC43 [14],22.48%
same,SARS-CoV-2 viral replication,SARS-CoV-2 [15],inhibition also observed
same,OC43 viral replication,OC43 [16],inhibition also observed
